The source of these data is ChEMBL document CHEMBL5154832, “Design, Synthesis, and Proof-of-Concept of Triple-Site Inhibitors against Aminoacyl-tRNA Synthetases” (J Med Chem, 2022).

SMILES strings stand for the structures. pIC50, pKd: −log10 of the molar value. Values after ≈ are worked out from the molar mass of the structure shown.

Assay [1] has as its target T1, Threonine--tRNA ligase (Salmonella enterica, UniProt A0A3F3IEK2).
T1 sequence (A0A3F3IEK2 whole entry): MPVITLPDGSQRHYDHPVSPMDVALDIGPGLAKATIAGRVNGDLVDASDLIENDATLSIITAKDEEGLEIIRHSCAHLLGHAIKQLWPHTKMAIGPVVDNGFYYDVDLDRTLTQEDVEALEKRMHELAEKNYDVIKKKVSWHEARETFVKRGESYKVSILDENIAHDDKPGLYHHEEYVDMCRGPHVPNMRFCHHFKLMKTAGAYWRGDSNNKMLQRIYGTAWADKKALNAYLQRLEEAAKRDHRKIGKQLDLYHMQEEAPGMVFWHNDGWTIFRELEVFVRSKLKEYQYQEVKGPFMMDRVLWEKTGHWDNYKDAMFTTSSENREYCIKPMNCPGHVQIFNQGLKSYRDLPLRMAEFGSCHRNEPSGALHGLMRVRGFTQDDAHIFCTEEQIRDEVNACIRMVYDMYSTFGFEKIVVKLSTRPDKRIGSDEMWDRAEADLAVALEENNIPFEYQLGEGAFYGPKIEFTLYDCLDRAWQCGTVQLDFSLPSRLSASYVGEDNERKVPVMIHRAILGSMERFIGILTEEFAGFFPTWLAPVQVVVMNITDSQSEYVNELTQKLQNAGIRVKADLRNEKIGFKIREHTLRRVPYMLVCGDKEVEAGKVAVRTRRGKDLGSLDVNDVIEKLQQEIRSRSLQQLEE
In words: Binding affinity to full length recombinant salmonella enterica threonyl-tRNA synthetase assessed as dissociation constant in presence of tRNA Leucine by isothermal titration calorimetry assay. Background: In ITC the heat of successive injections is recorded.

Assay [2] concerns the target T1, Threonine--tRNA ligase. The experiment in a line: Binding affinity to full length recombinant salmonella enterica threonyl-tRNA synthetase assessed as dissociation constant in presence of glycine by isothermal titration calorimetry assay.
Assay [3] relates to Staphylococcus aureus. The experiment in a line: Antibacterial activity against Staphylococcus aureus ATCC 29213 strain assessed as inhibition of bacterial growth incubated for 8 hrs by CLSI protocol based microdilution assay. The assay is classed as functional.
A further assay concerns Enterococcus faecalis. In words: Antibacterial activity against Enterococcus faecalis ATCC 29212 strain assessed as inhibition of bacterial growth incubated for 8 hrs by CLSI protocol based microdilution assay. The assay is classed as functional. On the technique in general: In broth dilution the organism is exposed to a series of concentrations in liquid medium.
The test system of assay [4] is Salmonella enterica. In words: Antibacterial activity against Salmonella enterica 87 strain assessed as inhibition of bacterial growth incubated for 8 hrs by CLSI protocol based microdilution assay. Type of assay: functional.
For assay [5], the target named is T1, Threonine--tRNA ligase. In words: Inhibition of recombinant salmonella enterica threonyl-tRNA synthetase assessed as reduction in enzyme activity incubated for 20 min by Kinase Glo luminescence assay.
Assay [6] concerns Staphylococcus aureus. The experiment in a line: Antibacterial activity against Staphylococcus aureus MRSA R3708 strain assessed as inhibition of bacterial growth incubated for 8 hrs by CLSI protocol based microdilution assay. The assay is classed as functional.
Assay [7] deals with T2, Threonine--tRNA ligase (Salmonella enterica) (UniProt A0A3F3IEK2).
T2 sequence (whole entry): T1 sequence (A0A3F3IEK2 whole entry)
The experiment in a line: Inhibition of recombinant salmonella enterica threonyl-tRNA synthetase assessed as reduction in enzyme activity at 10 uM incubated for 20 min by Kinase Glo luminescence assay relative to control. (In general: Kinase-Glo reads ATP consumption through a luciferase reaction.)

Assay [8] concerns Escherichia coli. The experiment in a line: Antibacterial activity against Escherichia coli acraB strain assessed as inhibition of bacterial growth incubated for 8 hrs by CLSI protocol based microdilution assay. The assay is classed as functional.
Assay [9] concerns the target T1, Threonine--tRNA ligase. In words: Binding affinity to full length recombinant salmonella enterica threonyl-tRNA synthetase assessed as dissociation constant in presence of L-threonine by isothermal titration calorimetry assay.
The target of assay [10] is T1, Threonine--tRNA ligase. In words: Binding affinity to full length recombinant salmonella enterica threonyl-tRNA synthetase assessed as dissociation constant in presence of tRNA Threonine by isothermal titration calorimetry assay.
Assay [11] addresses T1, Threonine--tRNA ligase. In words: Binding affinity to full length recombinant salmonella enterica threonyl-tRNA synthetase assessed as dissociation constant by isothermal titration calorimetry assay.
For assay [12], the target named is T2, Threonine--tRNA ligase (Salmonella enterica). In words: Binding affinity to recombinant salmonella enterica threonyl-tRNA synthetase assessed as change in melting temperature at 0.1 mM by fluorescence-based thermal shift assay.
In assay [13] the test system is Escherichia coli. In words: Antibacterial activity against Escherichia coli ATCC 25922 strain assessed as inhibition of bacterial growth incubated for 8 hrs by CLSI protocol based microdilution assay. The assay is classed as functional.
For a further assay, the system named is Pseudomonas aeruginosa. In words: Antibacterial activity against Pseudomonas aeruginosa ATCC27853 strain assessed as inhibition of bacterial growth incubated for 8 hrs by CLSI protocol based microdilution assay. Type of assay: functional.
The target of assay [14] is T1, Threonine--tRNA ligase. In words: Binding affinity to full length recombinant salmonella enterica threonyl-tRNA synthetase assessed as dissociation constant in presence of ATP by isothermal titration calorimetry assay.
In assay [15] the test system is Salmonella enterica. In words: Antibacterial activity against Salmonella enterica 87 strain assessed as inhibition of bacterial growth incubated in M9 medium for 8 hrs by CLSI protocol based microdilution assay. Type of assay: functional.

A word on the pKd: it is the Kd on a negative log10 scale, so that one unit is a factor of ten. What is called MIC is the least concentration at which growth counts as inhibited. A word on the pIC50: it is −log10 of the IC50, conventionally taken in molar units. As a reminder, the inhibition is the drop in the measured response relative to a control, in per cent. In general, ΔTm refers to the change in melting temperature against a reference sample. As for `C[C@@H](O)[C@H](N)C(=O)N[C@@H](CNC(=O)CCn1cnc2cc(Cl)c(Cl)cc2c1=O)c1cccc(-c2ccc3c(c2)CNC3=O)c1`, the pKd at Threonine--tRNA ligase [1] is 7.43; at Threonine--tRNA ligase [2], 7.35; on Threonine--tRNA ligase [9] it was 6.54; on Threonine--tRNA ligase [10], 6.78; on Threonine--tRNA ligase [11] it was 7.45; on Threonine--tRNA ligase [14], 7.12. The minimal inhibitory concentration (MIC) in the assay with Staphylococcus aureus [3], in the assay with Enterococcus faecalis, in the assay on Salmonella enterica [4], with Staphylococcus aureus [6], in the assay with Escherichia coli [8] and in the assay on Escherichia coli [13] was at least 128 µg/mL throughout. For the same compound, the MIC in the assay on Pseudomonas aeruginosa is at least 128 µg/mL. Besides, the pIC50 at Threonine--tRNA ligase [5] is 7.72. For the same compound, the inhibition in assay [7] was above 99%. The ΔTm in assay [12] is 33.6 °C.

`C[C@@H](O)[C@H](N)C(=O)NCC=CCn1cnc2cc(Cl)c(Cl)cc2c1=O`: the minimum inhibitory concentration (MIC) in the assay on Staphylococcus aureus [3] was at least 128 µg/mL; in the assay on Enterococcus faecalis it was 64 µg/mL (≈ 166 µM); with Salmonella enterica [4] it was 64 µg/mL (≈ 166 µM); with Staphylococcus aureus [6], at least 128 µg/mL; with Escherichia coli [8], 64 µg/mL (≈ 166 µM); with Salmonella enterica [15], 16 µg/mL (≈ 41.5 µM). The MIC with Escherichia coli [13] and with Pseudomonas aeruginosa was at least 128 µg/mL each time. The inhibition in [7] is 45%. For the same compound, the ΔTm in assay [12] came out at 17.6 °C.

Take `C[C@@H](O)[C@H](N)C(=O)N[C@@H](CNC(=O)CCn1cnc2cc(Br)c(Cl)cc2c1=O)c1cccc(-c2ccc3[nH]ncc3c2)c1`: the minimal inhibitory concentration (MIC) in the assay with Staphylococcus aureus [3], in the assay with Enterococcus faecalis, with Salmonella enterica [4], in the assay on Staphylococcus aureus [6], in the assay on Escherichia coli [8] and with Escherichia coli [13] was at least 128 µg/mL in each case. Also, the MIC in the assay with Pseudomonas aeruginosa is at least 128 µg/mL. For the same compound, the pIC50 at Threonine--tRNA ligase [5] is 6.71. Further, the inhibition in assay [7] is above 99%. Further, the ΔTm in [12] was 28 °C.

On to `C[C@@H](O)[C@H](N)C(=O)N[C@@H](CNC(=O)CCn1cnc2cc(Cl)c(Cl)cc2c1=O)c1cccc(-c2ccccc2)c1`, for which the MIC is 32 µg/mL (≈ 54.9 µM) with Staphylococcus aureus [3]; 32 µg/mL (≈ 54.9 µM) in the assay with Enterococcus faecalis; at least 128 µg/mL with Salmonella enterica [4]; 16 µg/mL (≈ 27.5 µM) in the assay on Staphylococcus aureus [6]; 16 µg/mL (≈ 27.5 µM) with Escherichia coli [8]; at least 128 µg/mL with Escherichia coli [13]. Also, in the assay with Pseudomonas aeruginosa, the minimum inhibitory concentration (MIC) is 16 µg/mL (≈ 27.5 µM). For the same compound, the pIC50 at Threonine--tRNA ligase [5] was 6.28. In assay [7], the inhibition was above 99%. The ΔTm in assay [12] stood at 23 °C.

With `C[C@@H](O)[C@H](N)C(=O)N[C@@H](CNC(=O)CCn1cnc2cc(Cl)c(F)cc2c1=O)c1cccc(-c2ccccc2)c1`, the MIC was 16 µg/mL (≈ 28.3 µM) with Staphylococcus aureus [3]; 32 µg/mL (≈ 56.5 µM) in the assay on Enterococcus faecalis; at least 128 µg/mL in the assay on Salmonella enterica [4]; 32 µg/mL (≈ 56.5 µM) in the assay on Staphylococcus aureus [6]; 32 µg/mL (≈ 56.5 µM) in the assay with Escherichia coli [8]; at least 128 µg/mL with Escherichia coli [13]. Also, in the assay on Pseudomonas aeruginosa, the MIC was determined as 16 µg/mL (≈ 28.3 µM). For the same compound, the pIC50 at Threonine--tRNA ligase [5] was 6.26. Moreover, the inhibition in assay [7] is above 99%. Further, the ΔTm in assay [12] worked out at 22.6 °C.

As for `C[C@@H](O)[C@H](N)C(=O)N[C@@H](CNC(=O)CCn1cnc2cc(Br)c(Cl)cc2c1=O)c1cccc(-c2ccccc2)c1`, the MIC is 32 µg/mL (≈ 51 µM) with Staphylococcus aureus [3]; 32 µg/mL (≈ 51 µM) in the assay on Enterococcus faecalis; at least 128 µg/mL with Salmonella enterica [4]; 32 µg/mL (≈ 51 µM) with Staphylococcus aureus [6]; 32 µg/mL (≈ 51 µM) in the assay on Escherichia coli [8]; at least 128 µg/mL with Escherichia coli [13]. For the same compound, the MIC in the assay on Pseudomonas aeruginosa came out at 16 µg/mL (≈ 25.5 µM). Besides, the pIC50 at Threonine--tRNA ligase [5] is 5.43. The inhibition in assay [7] turned out to be 82%. In assay [12], the ΔTm was 20.1 °C.

In the case of `C[C@@H](O)[C@H](N)C(=O)N(CCCC(=O)NCCn1cnc2cc(Br)c(Cl)cc2c1=O)Cc1cccc(-c2ccc3c(c2)CNC3=O)c1`, the MIC was at least 128 µg/mL in the assay on Staphylococcus aureus [3]; 64 µg/mL (≈ 90.1 µM) in the assay on Enterococcus faecalis; at least 128 µg/mL in the assay on Salmonella enterica [4]; at least 128 µg/mL with Staphylococcus aureus [6]; 64 µg/mL (≈ 90.1 µM) with Escherichia coli [8]; at least 128 µg/mL in the assay on Escherichia coli [13]. For the same compound, in the assay on Pseudomonas aeruginosa, the MIC was found to be 64 µg/mL (≈ 90.1 µM). The pIC50 at Threonine--tRNA ligase [5] is 5.52. Besides, in [7], the inhibition came to 84%. Moreover, the ΔTm in [12] stood at 27.8 °C.

As to `CN[C@H](C(=O)N[C@@H](CNC(=O)CCn1cnc2cc(Cl)c(F)cc2c1=O)c1cccc(-c2ccccc2)c1)[C@@H](C)O`, the MIC with Staphylococcus aureus [3] is 32 µg/mL (≈ 55.2 µM); with Enterococcus faecalis, 32 µg/mL (≈ 55.2 µM); with Salmonella enterica [4] it was at least 128 µg/mL; in the assay on Staphylococcus aureus [6] it was 32 µg/mL (≈ 55.2 µM); in the assay on Escherichia coli [8], 16 µg/mL (≈ 27.6 µM); in the assay with Escherichia coli [13], at least 128 µg/mL. Further, the MIC in the assay on Pseudomonas aeruginosa came out at 16 µg/mL (≈ 27.6 µM). Further, at Threonine--tRNA ligase [5], the pIC50 was 5.68. For the same compound, in [7], the inhibition came out at 73%. Further, the ΔTm in assay [12] is 22.1 °C.
